According to US20250275959A1, “COMPOUNDS AND METHODS OF THEIR USE” (LEXICON PHARMACEUTICALS, INC., priority 2024, published 2025):
Entries after “also recorded” stand apart in the source; their conditions may differ.

Assay: Murine diet-induced obesity (DIO) model, Compound A study
Type: in vivo, C57BL/6J mice
Details: DIO mice
Protocol: The effects of four representative compounds of the invention were tested in a mouse model of diet-induced obesity (DIO): • Compound A is (R)—N-(tert-butylsulfonyl)-4-(1-(5-(pyridin-3-yloxy)pyridin-2-yl)ethoxy)-3-(trifluoromethyl)benzamide; • Compound B is (R)-4-(1-(5-(cyclopropylmethoxy)pyridin-2-yl)propoxy)-N-((4-(2-(dimethylamino)ethoxy)phenyl)sulfonyl)-2,3-difluorobenzamide; • Compound C is (R)—N-((4-(2-(dimethylamino)ethoxy)piperidin-1l-yl)sulfonyl)-2,3-difluoro-4-(1-(5-(pyridin-2-yloxy)pyridin-2-yl)propoxy)benzamide; and • Compound D is (R)-2,3-difluoro-N-((4-methylpiperazin-1-yl)sulfonyl)-4-(1-(5-(pyridin-2-yloxy)pyridin-2-yl)propoxy)benzamide.
The mice used in these experiments were C57BL/6J mice fed a high-fat diet (D12492 from Research Diets) ad libitum during the study period. The vehicle and test article formulations were 10% w/v Solutol in water.
After a seven-day acclimation period, the DIO model was induced by putting the mice on a high fat diet for ten weeks. After the ten weeks, the DIO mice were equally divided into groups based on body weight, ten mice in each group: the control group (Vehicle) and Compound A at 30 mg/kg.
The animals were pre-dosed for two days prior to formal dosing (once-per-day treatment for every group). From Day 1 to Day 13, the animals in the dosing group were administered orally by gavage at 5:00 p.m. every day as well as weight and food intake were recorded daily. All animals were fasted overnight after dosing on Day 1, Day 4, Day 12 and Day 13, then the blood (retro-orbital bleed) of mice from each group was collected at 7:00 a.m. to separate out the serum on Day 2, Day 5 and Day 13 for measuring total cholesterol levels (TC), triglyceride (TG), aminotransferase alanine (ALT), aspartate aminotransferase (AST) and total bilirubin (TBil) levels. All animals were performed OGTT test (0 min, 30 min, 60 min and 120 min) and measured insulin levels (0 min and 30 min) on Day 14.
• 1. Body weight and Food Consumption: Pre-dose every day starting from Day −1 onwards. • 2. Day −1 and Day 0: Handle mice and gavage with vehicle. • 3. Day 1: Dose˜5:00 PM. Fast overnight. • 4. Day 2: Determine total cholesterol levels and triglyceride, ALT, AST, Total Bilirubin levels 7:00 AM. Resume feeding. • 5. Day 2-3: Dose˜5:00 PM. • 6. Day 4: Dose˜5:00 PM. Fast overnight. • 7. Day 5: Determine total cholesterol levels and triglyceride, ALT, AST, Total Bilirubin levels˜7:00 AM. Resume feeding. • 8. Day 5˜11: Dose˜5:00 PM. • 9. Day 12: Dose˜5:00 PM. Fast overnight. • 10. Day 13: Determine total cholesterol levels and triglyceride, ALT, AST, Total Bilirubin levels 7:00 AM. Resume feeding. • 11. Day 13: Dose˜5:00 PM. Fast overnight. • 12. Day 14: (No drug administration) Oral glucose tolerance test with glucose levels measured at Pre-dose, 30 min, 60 min and 120 min. And insulin levels at Time 0 min, 30 min after the glucose challenge.
Data was provided as mean±SD. Statistical significance was considered when the P value is less than 0.05. Results were analyzed by SPSS software. […]. T-test was used to calculate P value. […]

Structure (SMILES): C[C@@H](Oc1ccc(C(=O)NS(=O)(=O)C(C)(C)C)cc1C(F)(F)F)c1ccc(Oc2cccnc2)cn1 [Compound A, (R)—N-(tert-butylsulfonyl)-4-(1-(5-(pyridin-3-yloxy)pyridin-2-yl)ethoxy)-3-(trifluoromethyl)benzamide]
- Body Weight (g)/Day (30 mg/kg oral daily, Day 1): 37.9 ± 1.4 g
- Body Weight (g)/Day (30 mg/kg oral daily, Day 2): 36.6 ± 1.4 g
- Body Weight (g)/Day (30 mg/kg oral daily, Day 3): 35.8 ± 1.5 g
- Body Weight (g)/Day (30 mg/kg oral daily, Day 4): 35.3 ± 1.4 g
- Body Weight (g)/Day (30 mg/kg oral daily, Day 5): 34.3 ± 1.3 g
- Body Weight (g)/Day (30 mg/kg oral daily, Day 6): 34.2 ± 1.2 g
- Body Weight (g)/Day (30 mg/kg oral daily, Day 7): 34.0 ± 1.3 g
- Body Weight (g)/Day (30 mg/kg oral daily, Day 8): 33.9 ± 1.4 g
- Body Weight (g)/Day (30 mg/kg oral daily, Day 9): 33.5 ± 1.4 g
- Body Weight (g)/Day (30 mg/kg oral daily, Day 10): 33.4 ± 1.3 g
- Body Weight (g)/Day (30 mg/kg oral daily, Day 11): 32.9 ± 1.4 g
- Body Weight (g)/Day (30 mg/kg oral daily, Day 12): 32.8 ± 1.3 g
- mean body weight versus control group (30 mg/kg oral daily, Day −1 to Day 12): significantly lower than that of the control group from Day 8 onwards; also recorded: statistically significant effect on the mice's body weights versus control
- Body Weight (g)/Day (30 mg/kg, Day 0 (pre-dose)): 38.3 ± 1.4 g
- Body Weight (g)/Day (30 mg/kg, Day −1 (pre-dose)): 38.5 ± 1.6 g
